Results published in patent US8957087B2, “Heterocyclic substituted acardite derivate and application thereof” (Jiangsu Provincial Institute of Materia Medica Co., Ltd., priority 2009, dated 2015).

Legend:
[1] = tested on: Raf-1(truncated); assay: Raf-1 inhibitor screening by chemoluminescence method; type: biochemical; details: Final concentration 1 x 1.0*10^−5 mol/ml
Excerpt: 1. Inhibitory activity of the compound of the present invention on raf kinase
Raf-1 inhibitor screening by chemoluminescence method
Westernblot electrophoresis apparatus Rotaryshaker
Raf-1(truncated), Magnesium/ATP Cocktail, MEK1 unactive

[2] = tested on: human umbilical vein endothelial cell HUVEC; assay: Lumen formation ability of HUVEC (Matrigel method); type: cell-based; details: Final concentration 1 x 1.0*10^(−5) mol/L
Excerpt: 8. Inhibition effects of compounds on the lumen formation ability of human umbilical vein endothelial cell HUVEC
[Experimental principles] The human umbilical vein endothelial cells have ability of spontaneously forming blood lumen on Matrigel, which can be used to simulate the process of angiogenesis in vivo. We used Matrigel method to investigate the effects of the compound on the lumen formation ability of human umbilical vein endothelial cell HUVEC.
[Test materials] HUVEC (taking generation 3 to 5 cells for experiments after obtained from primary separation and cultured at 37 under the conditions of 5% CO2), Matrigel, cell culture medium M199.
(§1) [Tested compound] Compounds 1-38
(§2) [Positive control medicine] Sorafenib, compounds A′, B′, C′ with no substituent or only amino formyl in A ring
(§3) The inhibition rate is calculated as follows: […]

[3] = tested on: human liver cancer cell bel-7402 transplantation tumor; type: in vivo; details: BALB/cA nude mice; 60 mg/kg, 6 times every week for 3 weeks; Sorafenib oral 60 mg/kg
Description: 10. Tumor inhibition rate of tested compounds on human liver cancer cell bel-7402 transplantation tumor model in nude mice
(§4) [Test animals] female BALB/cA nude mice, 35-40 days old, with weight of 18-22g. There were 12 mice in the negative conrol group and 6 mice in the treatment group.
(§5) The dosage of the compound was 60 mg/kg, 6 times every week for 3 weeks. […] Equal amount of normal saline was administrated in the negative control group. Observe for one week after administration.

[4] = tested on: human lung cancer cell strain A549; assay: MTT assay, inhibition of growth of human lung cancer cell strain A549; type: cell-based; details: Final concentration 1 x 1.0*10^(−5) mol/L
Description: 4. Using 3-(4,5-dimethylthiazol-2-yl)-2,5-diphenyl tetrazolium bromide assay (MTT) to detect the inhibition effects on the growth of human lung cancer cell strain A549
[Test materials] MTT working solution, F12 medium containing 10% FBS, continuous injectors
as §1, §2
The inhibition rate is calculated as follows:
(§6) Relative OD value of conrol well=OD value of control well−OD value of blank well
(§7) Relative OD value of drug well=OD value of drug well−OD value of blank well

[5] = tested on: Human colon cancer HT-29 transplantable tumor; assay: Human colon cancer HT-29 transplantable tumor in nude mice; details: HT-29 in nude mice, 60 mg/kg ig 9 times
Description: Experimental therapeutic action of the compound in the present invention on Human colon cancer HT-29 transplantable tumor in nude mice.
Take eugenic tumor tissues and cut into about 1.5 mm^3, and then incoculate subcutaneously at the right armpit of nude mice under the sterile conditions. The diameter of the transplantable tumor in nude mice was determined with a vernier caliper, and the animals were divided into groups after the tumors were grown to 100-300 mm^3. Using the method of measuring the tumor diameter, dynamically observe the antitumor effects of tested materials. The diameter of the tumor was determined three times every week and the mouse weight was weighed at the same time. […] The solvent was intragastrically administrated as the control for continuous 9 times. Equal amount of control was administrated in the negative control group.
Tumor volume (TV) is calculated as: TV=½×a×b^2, wherein a and b respectively represent length and width.
Relative tumor volume (RTV) is calculated as: RTV=TVt/TV0, wherein TV0 is the tumor volume when administrated according to different cages and TVt is the tumor volume measured each time.
Relative tumor reproduction rate T/C (%) is calculated as follows:
TRTV: RTV in the treatment group; CRTV: RTV in the negative control group.
The test results used relative tumor reproduction rate T/C (%) as evaluating indicator of anti-tumor activity.

[6] = tested on: renal carcinoma cell line GCR-1 transplanted tumor; type: in vivo, BALB/cA nude mice; details: BALB/cA nude mice; 60 mg/kg, 6 times every week for 3 weeks; Sorafenib oral 60 mg/kg
Description: 11. Tumor inhibition rate of medicines on renal carcinoma cell line GCR-1 transplanted tumor model in nude mice
as §4
[Test method] […] The dosage of the medicine was 60 mg/kg, 6 times every week for 3 weeks. […] Equal amount of normal saline was administrated in the negative control group. Observe for one week after administration.

[7] = tested on: mice S180 sarcoma; assay: Experimental therapeutic action on S180 sarcoma mice; details: mice S180 sarcoma, 60 mg/kg orally for 9 days
Description: Experimental therapeutic action of the compound in the present invention on S180 sarcoma mice
18-25 g female ICR mice and well grown 7-11 day old mice sarcoma S180 tumor seeds were selected, and the seeds were inoculated into the subcutaneous at the right axillary. After inoculated 24 hours, these mice were randomly divided into cages and orally administrated 60 mg/kg for 9 days. On 10 day, the animals were killed and weighed, and the tumor weights were weighed to calculate average tumor weight in each group, followed by calculating the tumor inhibition rate according to the following formula and T test.

[8] = tested on: human lung cancer A549 transplantation tumor; type: in vivo; details: BALB/cA nude mice; 60 mg/kg, 6 times every week for 3 weeks; Sorafenib oral 60 mg/kg
Description: 9. Tumor inhibition rate of tested compounds on human lung cancer A549 cell transplantation model in nude mice
as §4, §5

[9] = tested on: lung cancer cell A549; assay: Effects on the adhesive ability of lung cancer cell A549; type: cell-based, human; details: Final concentration 1 x 1.0*10^(−5) mol/L
Description: 6. Effects of tested compounds on the adhesive ability of lung cancer cell A549
[Test materials] gelatin, CCK8, poly-lysine (PLL), A549 cell stains, 1640 medium containing 10% FBS
(§8) [Tested compound] Compounds 1-38 to be tested
as §2, §3
Dosing dosing cells without cell group (gelatin adhesive OD/PLL adhesion OD)−Dosing cell group (gelatin adhesive OD/PLL adhesion OD value)
Dosing dosing cells without cell group (gelatin adhesive OD/PLL adhesion OD value)

[10] = tested on: human high-metastic lung cancer cell 95D; assay: Inhibition of human high-metastic lung cancer cell 95D migration (Boyden Chamber Transwell); type: cell-based; details: Final concentration 1 x 1.0*10^(−5) mol/L
Description: 5 Inhibition effects of compounds on human high-metastic lung cancer cell 95D migration
[Test materials] Boyden Chamber Transwell chamber (with pore size of 8 μm), human high-metastic lung cancer cell 95D cell strain, 1640 medium containing 10% FBS, 1640 medium containing no serum
as §1, §2, §3

[11] = tested on: human umbilical vein endothelial cell HUVEC; assay: Growth of human umbilical vein endothelial cell HUVEC by CCK8 method; type: cell-based; details: Final concentration 1 x 1.0*10^(−5) mol/L
Excerpt: 7. Effects of tested compounds on the growth of human umbilical vein endothelial cell HUVEC cell by CCK8 method
[Test materials] CCK8, human umbilical vein endothelial cell HUVEC cell, 1640 medium containing 10% FBS
as §8, §2, §6, §7

| SMILES | Inhibition rate % on raf kinase [1] [%] | Inhibition rate, lumen formation ability of HUVEC [2] [%] | Relative tumor reproduction rate T/C (%) on human liver cancer cell bel-7402 transplantation tumor model in nude mice [3] [%] | Inhibition rate, growth of human lung cancer cell A549 [4] [%] | Relative tumor reproduction rate T/C (%) [5] [%] | Relative tumor reproduction rate T/C (%) on human renal carcinoma GCR-1 cell transplanted tumor model in nude mice [6] [%] | Tumor growth inhibition rate (%) [7] [%] | Relative tumor reproduction rate T/C (%) on human lung cancer A549 transplantation tumor in nude mice [8] [%] | Inhibition rate, adhesion ability of human lung cancer cell A549 [9] [%] | Inhibition rate, 95D cell strain migration [10] [%] | Inhibition rate, growth of HUVEC cell [11] [%] |
| --- | --- | --- | --- | --- | --- | --- | --- | --- | --- | --- | --- |
| CNC(=O)c1ncc(Oc2ccc(NC(=O)Nc3ccc(Br)c(C(F)(F)F)c3)cc2)c(OC)n1 [Compound 9, N-(4-bromo-3-(trifluoromethyl)phenyl)-N′-(4-(2-(N-methylaminoformoxyl)-5-(4-methoxypyrimidinyl)oxy)phenyl)urea] | 99.2 | 91.45 | 36.8 | 61.54 | 35.2 | 28.3 | 55.9 | 38.7 | 85.32 | 91.42 | 11.54 |
| CNC(=O)c1ncc(Oc2ccc(NC(=O)Nc3ccc(F)c(C(F)(F)F)c3)cc2)c2ccc(N)cc12 [Compound 11, N-(4-fluoro-3-(trifluoromethyl)phenyl)-N′-(4-(2-(N-methylaminoformoxyl)-4-(7-amino-isoquinolyl)oxy)phenyl)urea] | 11.2 | 79.63 | 23.7 | 69.20 | 81.2 | 32.1 | 54.2 | 43.7 | 59.63 | 78.66 | 29.20 |
| CNC(=O)c1ncc(Oc2ccc(NC(=O)Nc3ccc(Br)c(C(F)(F)F)c3)cc2)c2ccc(N)cc12 [Compound 12, N-(4-bromo-3-(trifluoromethyl)phenyl)-N′-(4-(2-(N-methylaminoformoxyl)-4-(7-amino-isoquinolyl)oxy)phenyl)urea] | 12.1 | 52.37 | 31.6 | 42.31 | 80.5 | 20.5 | 45.7 | 36.3 | 62.30 | 66.79 | 12.31 |
| CNC(=O)c1cc(Oc2ccc(NC(=O)Nc3ccc(Cl)c(C(F)(F)F)c3)cc2)c(C)[nH]1 [Compound 13, N-(4-chloro-3-(trifluoromethyl)phenyl)-N′-(4-(2-(N-methylaminoformoxyl)-4-(5-methyl-pyrryl)oxy)phenyl)urea] | 55.0 | 53.36 | 29.8 | 64.23 | 81.2 | 28.3 | 21.2 | 38.4 | 63.39 | 65.45 | 24.23 |
| CNC(=O)c1cc(Oc2ccc(NC(=O)Nc3ccc(F)c(C(F)(F)F)c3)cc2)c(C)[nH]1 [Compound 14, N-(4-fluoro-3-(trifluoromethyl)phenyl)-N′-(4-(2-(N-methylaminoformoxyl)-4-(5-methyl-pyrryl)oxy)phenyl)urea] | 41.3 | 67.53 | 36.1 | 67.25 | 40.1 | 31.1 | 18.2 | 32.2 | 67.51 | 57.57 | 17.25 |
| CNC(=O)c1cc(Oc2ccc(NC(=O)Nc3ccc(Br)c(C(F)(F)F)c3)cc2)c(C)[nH]1 [Compound 15, N-(4-bromo-3-(trifluoromethyl)phenyl)-N′-(4-(2-(N-methylaminoformoxyl)-4-(5-methyl-pyrryl)oxy)phenyl)urea] | 35.5 | 68.64 | 33.6 | 72.17 | 85.2 | 22.5 | 56.7 | 38.7 | 68.63 | 63.68 | 38.17 |
| COc1ccc2nccc(Oc3ccc(NC(=O)Nc4ccc(Cl)c(C(F)(F)F)c4)cc3)c2c1 [Compound 16] | 62.1 | 80.79 | 14.9 | 89.71 | 55.2 | 9.9 | 33.6 | 9.9 | 90.77 | 89.31 | 10.71 |
| COc1ccc2nccc(Oc3ccc(NC(=O)Nc4ccc(F)c(C(F)(F)F)c4)cc3)c2c1 [Compound 17] | 58.2 | 67.50 | 12.5 | 88.52 | 54.7 | 11.1 | 44.2 | 7.3 | 97.50 | 90.52 | 13.52 |
| COc1ccc2nccc(Oc3ccc(NC(=O)Nc4ccc(Br)c(C(F)(F)F)c4)cc3)c2c1 [Compound 18] | 34.4 | 63.71 | 12.7 | 90.71 | 40.2 | 12.3 | 35.7 | 12.5 | 93.72 | 93.73 | 5.71 |
